Positions of bridges follow the written chain, without caps; N, C: chain ends. Non-standard residues stand in square brackets, D forms with d. Residues, ends and D or L forms follow the SMILES beside them. *: point of attachment. X1 = CC[C@H](C)CCCCC(=O)*; Dab = NCC[C@H](N)C(=O)O
Columns and labels:
[1] = Stability of PB in plasma QC samples (short-term, freeze-thaw, long-term); format: in vitro ADME, human; settings: for Stability of the sample (in words): human plasma sample
Protocol: Blank plasma (190 μL) and 10 μL working solution were mixed to prepare calibration curves of 8000, 6000, 5000, 2400, 1200, 600, 300, and 100 ng/ml for PB1/PB1-I, and 948.5, 711.4, 592.8, 284.6, 142.3, 71.1, 35.6, and 11.9 ng/mL for PB2/PB3. Similar to the QC standards, for PB1/PB1-I, the low QC (QCL), medium QC 1 (QCM1), medium QC 2 (QCM2), and high QC (QCH) were 200, 1000, 4000, and 7000 ng/ml, respectively. For PB2/PB3, QC standards were 23.7, 118.6, 474.3, and 830.0 ng/ml. First, a 100 μL calibration sample or QC sample was removed; 10 μL IS solution, 200 μL ACN with 0.1% FA (v/v), and 0.2% TFA (v/v/v) were added successively. The samples were vortexed for 2 min to make precipate the protein fully, then centrifugated at 18800 g at 4 ℃ for 15 min. About 200 μL of the supernatant was sucked and transferred into 96-well plates for analysis.
(§1) Volume of 200 μL ACN with 0.2% TFA and 0.1% FA was added to a 100 μL plasma sample containing 10 μL IS solution, vortexed for 2 min, and centrifugated at 18800 g at 4°C for 15 min. The supernatant was then transferred to a 96-well plate for analysis.
(§2) QC samples (QCL, QCM1, QCM2, and QCH) were used to investigate the stability of the stock solutions, working solutions, and samples. Each QC was set with three parallels. The stability of plasma samples stored at room temperature (25°C) for 4 h, at 4°C in a refrigerator for 24 h, at −20°C for 37 days, and at −80°C for 97 days was investigated. The freeze-thaw stability of −20°C and −80°C freeze-thaw cycles at three times each was investigated. The stability of the stock and working solutions stored at −80°C for 97 days was investigated. The accuracy of the quality control sample should be within ±15% of the nominal concentration; the precision should be within 15%.

[2] = Stability of extracted supernatant in the autosampler; format: physicochemical; settings: extracted supernatant in automatic sampler, 24 h
Protocol: The LC-MS/MS system consisted of an Agilent 1260 HPLC system equipped with a cooled autosampler (4°C) and an Agilent 6460 electrospray ionization-triple quadrupole mass spectrometer (Agilent Technologies, USA). The chromatographic column was BEH C18 (Waters, 2.1 × 50 mm, 1.7 μm) (Waters Corporation, USA). Ultrapure water was prepared using the Milli-Q Direct 8 (E. Merck, Darmstadt, Germany) water purification system. A Heraeus Multifuge X1R (Thermo Fisher Scientific, USA) high-speed refrigerated centrifuge was used for the centrifugation. SHIMADZU-AUW120D (Shimadzu Corporation, Japan) was used for the weighting.
as §1
as §2, with “The stability of the stock and working solutions stored at −80°C for 97 days was investigated. The accuracy of the quality control sample should be within ±15% of the nominal concentration; the precision should be within 15%.” left out

[3] = Stability of working and stock solutions; format: physicochemical
Protocol: Standard and IS stock solutions were prepared in Milli-Q water containing 1% FA (v/v) at 1 mg/mL (with all substances) and subpacked in EP tubes. Working solutions were diluted from the stock solution. The concentrations of PB1 in the PB1-I's working solution were 160, 120, 100, 48, 24, 12, 6, and 2 μg/mL. The quality control (QC) working solutions were 140, 80, 20, and 4 μg/mL. The IS solution, polymyxin E2, was diluted in 1% FA water to 7.5 μg/mL. All solutions were stored at −80°C.
as §2

CC[C@H](C)CCCCC(=O)N[C@@H](CCN)C(=O)N[C@H](C(=O)N[C@@H](CCN)C(=O)N[C@H]1CCNC(=O)[C@H]([C@@H](C)O)NC(=O)[C@H](CCN)NC(=O)[C@H](CCN)NC(=O)[C@H](CC(C)C)NC(=O)[C@@H](Cc2ccccc2)NC(=O)[C@H](CCN)NC1=O)[C@@H](C)O [PB, Polymyxin B] (X1-[Dab]T[Dab][Dab][Dab][dF]L[Dab][Dab]T; lactam 4-C)
stable: Stability of the sample (in words) ([1]; 4°C, 24 h) | Stability of the sample (in words) ([1]; room temperature, 4 h) | Stability of the sample (in words) ([1]; −20°C, three freeze-thaw cycles) | Stability of the sample (in words) ([1]; −80°C, three freeze-thaw cycles) | Stability of the samples (in words) ([1]; human plasma samples stored at −20°C for 37 days) | Stability of the samples (in words) ([1]; human plasma samples stored at −80°C for 97 days) | Stability of the extracted supernatant (in words) [2] | Stability of the stock solution (in words) ([3]; stock solution at −80°C for 97 days) | Stability of the working solution (in words) ([3]; working solution at −80°C for 97 days) | Stability of the working solution (in words) ([3]; working solution stored at −20°C for 18 days)

Source: publication PMC10104742, “The Determination of Polymyxin B in Critically Ill Patients by the HPLC-MS/MS Method” (International Journal of Analytical Chemistry, 2023)
